Measurements from patent US20020026052A1, “3-cyanoquinolines, 3-cyano-1,6-naphthyridines, and 3-cyano-1,7-naphthyridines as protein kinase inhibitors” (American Home Products Corporation, priority 2000, published 2002).
Values joined by “and” are separate entries in the source; they are usually repeats but may differ in a detail not shown here. Equal values may be shown once.

What was measured:
[1] = target: Src (Homo sapiens, UniProt P12931); assay: c-Src Kinase Assay (ELISA); type: biochemical
Method: Inhibitors of Src (partially purified preparation purchased from Upstate Biotechnologies) tyrosine kinase activity are analyzed in an ELISA format. […] Horseradish Peroxidase (HRP)-conjugated anti-phosphotyrosine is used to detect phosphorylated peptide via a color reaction. Conditions recommended by the manufacturer are employed.
Reaction conditions: Five microliter aliquots of each compound prepared fresh at the time of the assay are added as a solution in lOmM HEPES pH 7.5, 10% DMSO to the reaction well. Thirty-five microliters of reaction mix containing Src, buffer and peptide/bovine serum albumin mix are added to the compound wells and incubated at 30° C. for 10 minutes (reaction buffer: 5 OmM TrisHCI pH 7.5, l0 mM MgCl2, O.lmM EGTA, 0.5 mM Na3 VO4)-1H-. The reaction is started by addition of 10 microliters of ATP, incubated at 30° C. for 1 hour, and stopped by addition of 20 microliters of 0.5 M EDTA. The reaction mixture with the phosphorylated peptide is then transferred to a streptavidin-coated microtiter plate (provided in the kit) and allowed to bind for 20 minutes. IUnbound peptide and reaction mixture is decanted and the plate is washed with PBS six times. HRP-conjugated phosphotyrosine antibody supplied in the kit is incubated with the plate for one hour, then decanted. The plate is again washed with PBS six times.
Activity is determined as % inhibition as calculated by the formula: (1−Abs/Abs(max) ) ×100=% inhibition.

[2] = target: Rat2 fibroblasts stably transformed with v-Src/Hu c-Src fusion gene (Homo sapiens, UniProt P12931, cells depend on it, form not given); assay: Anchorage Independent Src-transformed Fibroblast Proliferation Assay; type: cell-based, Rat; conditions: suspension growth, MTS reagent on Day 5; read-out: anch-indep src-tx fib IC50
Method: Anchorage Independent Src-transformed Fibroblast Proliferation Assay
Rat2 fibroblasts stably transformed with a plasmid containing a CMV promotor controlled v-Src/Hu c-Src fusion gene in which the catalytic domain of human c-Src was inserted in place of the v-Src catalytic domain in the v-Src gene are used for the measurement of src dependent suspension growth. […] Multiple entries for a given compound indicate that it was tested multiple times.

| Compound | IC50 [1] | GI50 [2] | melting point [°C] | ELISA c-src % inhibition ([1]; at 10 nM) [% at 10 nM] |
| --- | --- | --- | --- | --- |
| COc1cc(Nc2c(C#N)cnc3cc(-c4ccc(CNCCc5ccccn5)o4)ccc23)c(Cl)cc1Cl [Example 74, 4-(2,4-Dichloro-5-methoxyanilino)-7-[5-({[2-(2-pyridinyl)ethyl]amino}methyl)-2-furyl]-3-quinolinecarbonitrile] | 40 nM | 1400 nM | 130 to 135 |  |
| COc1cc(Nc2c(C#N)cnc3cc(-n4cccc4CN(C)C)ccc23)c(Cl)cc1Cl [Example 93] | 610 nM and 680 nM | > 10000 nM | 157 to 158 |  |
| COc1cc(Nc2c(C#N)cnc3cc(-c4ccc(-c5nnn[nH]5)cc4)ccc23)c(Cl)cc1Cl [Example 105] | 10 nM | > 10000 nM and 5900 nM |  |  |
| COc1cc(Nc2c(C#N)cnc3cc(-c4cc5ccccc5s4)ccc23)c(Cl)cc1Cl [Example 120, 7-(1-benzothien-2-yl)-4-(2,4-dichloro-5-methoxyanilino)-3-quinolinecarbonitrile] | 170 nM | > 10000 nM | 269 to 270 |  |
| COc1cc(Nc2c(C#N)cnc3cc(C#CCN4CCOCC4)ccc23)c(Cl)cc1Cl [Example 146, 4-(2 ,4-Dichloro-5-methoxyanilino)-7-[3-(4-morpholinyl)-1-propynyl]-3-quinolinecarbonitrile] | 22 nM | 6500 nM | 190 to 191 |  |
| COc1cc(Nc2c(C#N)cnc3cc(-c4ccc(-c5ccccc5)cc4)ccc23)c(Cl)cc1Cl [Example 165, 7-[1,1-Biphenyl]-4-yl-4-(2,4-dichloro-5-methoxyanilino)-3-quinolinecarbonitile] |  | > 10000 nM |  | 28 |
| (1-{4-[3-Cyano-4-(2,4-dichloro-5-methoxyanilino)-7-quinolinyl]benzyl }-4-piperidinyl) acetic acid [Example 100] | 0.57 nM | 340 nM and 400 nM |  |  |
| (E)-3-[3-Cyano-4-(2,4-dichloro-5-methoxyanilino)-7-quinolinyl]-2-propenoic acid [Example 99] | 44 nM | > 10000 nM |  |  |
